From the NIST ThermoML archive (doi:10.1021/je800789b)
± gives the expanded uncertainty stated by the source.

Settings: Crystal

Row | Normal melting temperature [°C] | SMILES
1 | 29.8 ± 1.2 | O=C(O)C1CCCCC1 [cyclohexanecarboxylic acid]
2 | 29.8 ± 1.2 | O=C(O)CC1CCCCC1 [cyclohexylethanoic acid]
3 | 6.2 ± 0.4 | CCCCCCCCCCO [decan-1-ol]
4 | 24.1 ± 0.6 | CCCCCCCCCCCCO [dodecan-1-ol]
